EC50 and IC50 data for 13 compounds are collected here from patent US11498929B2, “Chromenopyrimidine derivatives as phosphatidylinsitol phosphate kinase inhibitors” (Hibercell, Inc., priority 2019, dated 2022).

The structures appear in SMILES notation. Where only a bound is given, the exact number is not on record here.

The term EC50 denotes the concentration at which the effect is half-maximal. One may read the IC50 as the concentration needed to halve the response being measured.

Experiment [1] relates to MOLM-16. The experiment is described as follows: MOLM-16 EC50 assay. The note with it: MOLM16. It counts as cell-based.
Experiment [2] has as its target T1, PIP4K2A (Homo sapiens, UniProt P48426).
T1 construct: GST; made in house; host or cells: E. coli
T1 sequence (P48426 1-406): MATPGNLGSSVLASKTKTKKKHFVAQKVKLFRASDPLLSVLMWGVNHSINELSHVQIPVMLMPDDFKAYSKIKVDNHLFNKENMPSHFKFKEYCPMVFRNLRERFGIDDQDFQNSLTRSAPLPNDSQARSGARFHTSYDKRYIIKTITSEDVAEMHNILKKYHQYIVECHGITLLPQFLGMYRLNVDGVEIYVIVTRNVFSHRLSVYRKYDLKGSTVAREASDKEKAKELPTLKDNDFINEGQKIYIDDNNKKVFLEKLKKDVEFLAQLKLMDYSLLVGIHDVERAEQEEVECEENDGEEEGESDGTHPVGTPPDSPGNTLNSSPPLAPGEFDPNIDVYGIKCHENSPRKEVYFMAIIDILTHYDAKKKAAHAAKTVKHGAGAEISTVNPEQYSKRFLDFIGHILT
The experiment is described as follows: Kinase Assay - PIP4K2 A (inhibition of PIP4K2 A kinase assay). It counts as biochemical. The note with it: compounds listed under IC50 bin headings. How it is done: Dilution series of the compounds were prepared in DMSO at 100 times the final assay concentration (n1=n0/3 in 10 points). The compounds were further diluted to three times the assay concentration in assay buffer (20 mM MOPS pH 7.2, 25 mM magnesium chloride, 0.005% Tween 20). 6 μL of the diluted compounds were added to a 384 well assay plate followed by 9 μL of a mix consisting of 4 nM PIP4K2A (full length protein, SignalChem) and 100 μM PI(5)P diC8 (Tebu-Bio). Enzyme and compounds were pre-incubated at room temperature for 15 minutes.
Then 3 μL of a solution containing 60 μM ATP (Promega) in assay buffer was added to the wells containing compound and enzyme and mixing was performed by pipetting several times. The reaction was incubated at room temperature for 1 h. Then 18 μL of ADP-Glo™ Reagent (Promega) was added to stop the kinase reaction and deplete the unconsumed ATP, mixing was performed by pipetting several times. The plate was incubated at room temperature for 40 minutes before addition of 36 μL of Kinase Detection Reagent (Promega) to convert ADP to ATP and introduce luciferase and luciferin to detect ATP. The reaction was incubated at room temperature for 40 minutes before the luminescence was measured in a in a Victor 3V 1420 multilabel counter (Perkin Elmer).
Percent inhibition of the compounds as compared to dimethyl sulfoxide treated control samples was calculated. Compound concentration versus percent inhibition were fitted to generate IC50 values. […]

The target in experiment [3] is T2, PIP4K2 B (GST-tagged PIP4KtypeIIB) (Homo sapiens, UniProt P78356).
T2 construct: GST; made in house; host or cells: E. coli
T2 sequence (P78356 1-416): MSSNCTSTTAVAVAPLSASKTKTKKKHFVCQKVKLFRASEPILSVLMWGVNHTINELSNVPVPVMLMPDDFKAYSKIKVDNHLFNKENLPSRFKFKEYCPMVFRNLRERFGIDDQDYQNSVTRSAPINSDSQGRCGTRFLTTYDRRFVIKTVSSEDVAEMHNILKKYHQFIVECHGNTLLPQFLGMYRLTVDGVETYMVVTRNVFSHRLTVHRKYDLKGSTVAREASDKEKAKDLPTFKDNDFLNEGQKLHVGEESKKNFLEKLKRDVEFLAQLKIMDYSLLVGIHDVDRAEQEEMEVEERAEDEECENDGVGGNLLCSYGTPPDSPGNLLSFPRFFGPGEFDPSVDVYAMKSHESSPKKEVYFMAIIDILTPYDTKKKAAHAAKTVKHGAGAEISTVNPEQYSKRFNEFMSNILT
The experiment is described as follows: Kinase Assay - PIP4K2 B (inhibition of PIP4K2 B kinase assay). The experiment is classed as biochemical. The note with it: compounds listed under IC50 bin headings. From the text: GST tagged PIP4KtypeIIA and B enzymes were overexpressed in E. Coli and purified to >80% homogeneity. Phosphatidyl inositol-5-phosphate (PI5P, Cat. #850152, Avanti Polar Lipids Inc.) was used as the lipid substrate and phosphatidyl ethanolamine (DOPE 18:1, Cat. #850725, Avanti Polar Lipids Inc.) was used as the carrier lipid for assays. Ultrapure ATP and GTP was purchased from Bellbrooke Labs. ADP Glo reagents were obtained from Promega. Transcreener FI reagent was obtained from Bellbrooke labs.
GST-tagged PIP4KtypeIIB (3.4 uL, 2.77 mg/mL) was diluted to 5 mL using HNE buffer to yield 5× enzyme stock (25 nM)
Lipid Preparation: In a 10 mL pyrex glass vial, 1 ug of PI5P and 1 ug of DOPE were suspended in 2.5 mL of HEPES buffer mix and 2.5 mL of H:E buffer. The contents were mixed and sonicated for 3 min to yield a translucent lipid stock.
Compound Preparation: Compounds were stored as 5 mM stocks in neat DMSO as room temperature in glass vials. 5 mM stocks were diluted to 2 mM and then serially diluted (3×) in neat DMSO in 96 well polypropylene plates. From the serially diluted stocks, 3 uL was delivered into 250 uL of 25% DMSO (in water) to generate 5× compound stocks. Typically, the highest compound conc. was 24 uM.
The assay volume was kept at 25 uL. To each well of the reaction plate, 10 uL of lipid stock (1:1 ratio PI5P:DOPE) was delivered. This was followed by the addition of 5 uL of compound in 25% DMSO. Then, to each well, 5 uL of 25 nM (5×) typeIIB enzyme was delivered. The contents were mixed well and incubated for 1 h at 27 C. After 1 h, reaction was initiated by adding 5 uL of 500 uM GTP and the contents were mixed well with a multi-channel pipetteman. The final concentration of the reagents are as follows: 50 mM HEPES, pH 7.3, 10 mM MgCl2, 20 mM NaCl, 0.01% v/v triton-X100, 5% DMSO, 100 uM GTP, 80 uM (2 ug) PI5P, 2 ug DOPE, and 5 nM PIP4KIIB Typically, the highest conc. of compounds was 4.8 uM and the lowest conc. was 0.
After 2 h, the reaction was quenched by adding 25 uL of transcreener FI reagent. The contents were incubated at RT for 1 h and the Fluorescence (Ex:584 Em: 623) was read using Molecular Devices Paradigm plate reader. […] The blanks were averaged and subtracted from all other wells. Using a calibration curve, RFU was converted to uM GDP (product). IC50 was calculated by plotting the residual activity (expressed as % No inhibitor control) vs. log [Inh. conc.]

For the compound `CNC(=O)N1CCOc2ncc(Nc3ncc4c(n3)C(C)(C)Oc3cc(N5CCCC5=O)ccc3-4)cc21` [Compound 7, 7-{[5,5-dimethyl-8-(2-oxopyrrolidin-1-yl)-5H-chromeno[3,4-d]pyrimidin-3-yl]amino}-N-methyl-1H,2H,3H-pyrido[2,3-b][1,4]oxazine-1-carboxamide], the EC50 in experiment [1] fell in the range of 10 to 100 nM. The IC50 is ≤ 1 nM in experiment [2] and 1 to 10 nM in experiment [3].

Turning to `CNC(=O)N1CCOc2ncc(Nc3ncc4c(n3)C(C)(C)Oc3cc(-n5nncc5C)ccc3-4)cc21` [Compound 8, 7-{[5,5-dimethyl-8-(5-methyl-1H-1,2,3-triazol-1-yl)-5H-chromeno[3,4-d]pyrimidin-3-yl]amino}-N-methyl-1H,2H,3H-pyrido[2,3-b][1,4]oxazine-1-carboxamide], the EC50 in experiment [1] was 100 to 1000 nM. Besides, the IC50 in experiment [2] is ≤ 1 nM; in experiment [3], 1 to 10 nM.

In experiment [1], `Cc1cnnn1-c1ccc2c(c1)OC(C)(C)c1nc(Nc3cnc4c(c3)N(C(=O)NC3CC3)CCO4)ncc1-2` [Compound 9, N-cyclopropyl-7-{[5,5-dimethyl-8-(5-methyl-1H-1,2,3-triazol-1-yl)-5H-chromeno[3,4-d]pyrimidin-3-yl]amino}-1H,2H,3H-pyrido[2,3-b][1,4]oxazine-1-carboxamide] gave an EC50 of 100 to 1000 nM. Besides, the IC50 was ≤ 1 nM in experiment [2] and 1 to 10 nM in experiment [3].

Consider `Cc1cnnn1-c1ccc2c(c1)OC(C)(C)c1nc(Nc3cnc4c(c3)N(C(=O)CN(C)C)CCO4)ncc1-2` [Compound 10, 1-(7-{[5,5-dimethyl-8-(5-methyl-1H-1,2,3-triazol-1-yl)-5H-chromeno[3,4-d]pyrimidin-3-yl]amino}-1H,2H,3H-pyrido[2,3-b][1,4]oxazin-1-yl)-2-(dimethylamino)ethan-1-one], for which, in experiment [1], the EC50 is 100 to 1000 nM. In addition, the values for the 50% inhibitory concentration (IC50) in experiment [2] and in experiment [3] were ≤ 1 nM and 1 to 10 nM, respectively.

Turning to `CNC(=O)N1CCOc2ncc(Nc3ncc4c(n3)C(C)(C)Oc3cc(-c5nocc5C)ccc3-4)cc21` [Compound 11, 7-{[5,5-dimethyl-8-(4-methyl-1,2-oxazol-3-yl)-5H-chromeno[3,4-d]pyrimidin-3-yl]amino}-N-methyl-1H,2H,3H-pyrido[2,3-b][1,4]oxazine-1-carboxamide], the EC50 in experiment [1] lay in the range of 100 to 1000 nM. Also, the IC50 is ≤ 1 nM in experiment [2] and 1 to 10 nM in experiment [3].

Regarding `CC(=O)OC(C)C(=O)N1CCOc2ncc(Nc3ncc4c(n3)C(C)(C)Oc3cc(-n5nncc5C)ccc3-4)cc21` (stereo not drawn) [Compound 12, 1-(7-{[5,5-dimethyl-8-(5-methyl-1H-1,2,3-triazol-1-yl)-5H-chromeno[3,4-d]pyrimidin-3-yl]amino}-1H,2H,3H-pyrido[2,3-b][1,4]oxazin-1-yl)-1-oxopropan-2-yl acetate], the EC50 in experiment [1] was > 1000 nM. Also, the results for the IC50 in experiment [2] and in experiment [3] were ≤ 1 nM and 1 to 10 nM, respectively.

As for `Cc1cnnn1-c1ccc2c(c1)OC(C)(C)c1nc(Nc3cnc4c(c3)N(CC3COC3)CCO4)ncc1-2` [Compound 13, 5,5-dimethyl-8-(5-methyl-1H-1,2,3-triazol-1-yl)-N-{1-[(oxetan-3-yl)methyl]-1H,2H,3H-pyrido[2,3-b][1,4]oxazin-7-yl}-5H-chromeno[3,4-d]pyrimidin-3-amine], the EC50 in experiment [1] lay in the range of 100 to 1000 nM. Besides, the IC50 in experiment [2] was ≤ 1 nM; in experiment [3], 1 to 10 nM.

On to `Cc1cnnn1-c1ccc2c(c1)OC(C)(C)c1nc(Nc3cncc(CNCCS(C)(=O)=O)c3)ncc1-2` [Compound 14, N-[5,5-dimethyl-8-(5-methyl-1H-1,2,3-triazol-1-yl)-5H-chromeno[3,4-d]pyrimidin-3-yl]-5-{[(2-methanesulfonylethyl)amino]methyl}pyridin-3-amine], for which, in experiment [1], the EC50 was > 1000 nM. The IC50 was ≤ 1 nM in experiment [2] and 1 to 10 nM in experiment [3].

In experiment [1], `Cc1conc1-c1ccc2c(c1)OC(C)(C)c1nc(Nc3cnc4c(c3)N(C(=O)N(C)C)CCO4)ncc1-2` [Compound 15, 7-{[5,5-dimethyl-8-(4-methyl-1,2-oxazol-3-yl)-5H-chromeno[3,4-d]pyrimidin-3-yl]amino}-N,N-dimethyl-1H,2H,3H-pyrido[2,3-b][1,4]oxazine-1-carboxamide] had an EC50 of 100 to 1000 nM. Moreover, the concentration for half-maximal inhibition (IC50) in experiment [2] is ≤ 1 nM; in experiment [3], 1 to 10 nM.

For `CC(=O)OC1(C(=O)N2CCOc3ncc(Nc4ncc5c(n4)C(C)(C)Oc4cc(-n6nncc6C)ccc4-5)cc32)CC1` [Compound 16, 1-(7-{[5,5-dimethyl-8-(5-methyl-1H-1,2,3-triazol-1-yl)-5H-chromeno[3,4-d]pyrimidin-3-yl]amino}-1H,2H,3H-pyrido[2,3-b][1,4]oxazine-1-carbonyl)cyclopropyl acetate], in experiment [1], the EC50 was > 1000 nM. In addition, the IC50 in experiment [2] is ≤ 1 nM; in experiment [3], 1 to 10 nM.

In the case of `CCN1CCN(Cc2cncc(Nc3ncc4c(n3)C(C)(C)Oc3cc(-n5nncc5C)ccc3-4)c2)CC1` [Compound 17, N-[5,5-dimethyl-8-(5-methyl-1H-1,2,3-triazol-1-yl)-5H-chromeno[3,4-d]pyrimidin-3-yl]-5-[(4-ethylpiperazin-1-yl)methyl]pyridin-3-amine], the EC50 in experiment [1] was 100 to 1000 nM. Further, the figures for the IC50 in experiment [2] and in experiment [3] were ≤ 1 nM and 1 to 10 nM, respectively.

`CC1(C)Oc2cc(N3CCCC3=O)ccc2-c2cnc(Nc3cncc(N4CCN(CCO)CC4)c3)nc21` [Compound 19, 1-[3-({5-[4-(2-hydroxyethyl)piperazin-1-yl]pyridin-3-yl}amino)-5,5-dimethyl-5H-chromeno[3,4-d]pyrimidin-8-yl]pyrrolidin-2-one] had an EC50 in experiment [1] of 10 to 100 nM. Further, the 50% inhibitory concentration (IC50) in experiment [2] lay in the range of 1 to 10 nM; in experiment [3], 10 to 100 nM.

In the case of `CN1CCN(CC(=O)N2CCOc3ncc(Nc4ncc5c(n4)C(C)(C)Oc4cc(N6CCCC6=O)ccc4-5)cc32)CC1` [Compound 22, 1-[5,5-dimethyl-3-({1-[2-(4-methylpiperazin-1-yl)acetyl]-1H,2H,3H-pyrido[2,3-b][1,4]oxazin-7-yl}amino)-5H-chromeno[3,4-d]pyrimidin-8-yl]pyrrolidin-2-one], the EC50 in experiment [1] was 10 to 100 nM. The figures for the IC50 in experiment [2] and in experiment [3] were 1 to 10 nM and 10 to 100 nM, respectively.
